“Also recorded” adds a separate entry of the source.
What was measured:
[1] = system: in vivo cancer and cancer stem cell models; details: regardless of anatomic location; cited from earlier work
[2] = system: B78 melanoma; test: ^124I-NM404 PET/CT imaging; type: in vivo, mouse; details: IV; ~200 mm^3 B78 tumor; image at 71 h
Source text: FIG. 5 is an image showing selective uptake of ^124I-NM404 by B78 melanoma. A mouse bearing a ˜200 mm^3 B78 tumor received IV ^124I-NM404 and had serial PET/CT scans done.
^131I-NM404 has shown selective uptake in vitro in >95% of tumor lines (human and mouse), with poor uptake by non-malignant cells, and with similar tumor specificity seen in vivo. This includes selective uptake in vivo with the B78 tumor (FIG. 5). In our preliminary dosimetry study, we gave ^124I-NM404 to C57BL/6 mice and characterized the time course of TRT exposure by serial PET/CT imaging (as in FIG. 5). […] After those four weeks, the remaining TRT dose to the B78 tumor would be less than 0.25 Gy. We will replicate the data we obtained in our 2-tumor model using xRT (FIG. 3), but use the lowest possible dose of targeted ^131I-NM404 TRT to enable effective elimination of tumor-induced tolerance at all sites of distant disease. However, unlike xRT, which delivers all dose in minutes and is then done, TRT deposits dose over time, depending upon both the biological and physical half-life of the targeted isotope (8 day t½ for ^131I). We want an initial TRT effect at the distant tumor sites to eradicate immune tolerance; however we want the immunosuppressive TRT effect to then be minimal when we give the IT-IC to induce ADCC and the in situ vaccine anti-tumor effects. […]

[3] = system: B78 tumor; test: ^131I-NM404 with xRT+IT-IC, single B78 tumor; type: in vivo, mice
Source text: (§1) Using the dosimetry calculations from our preliminary data, we estimated that a dose of 3 μCi of ^131I-NM404, should deliver an equivalent of ˜0.2 Gy to the tumor site, a dose that we hypothesized should not be immunosuppressive and should not prevent lymphocyte-mediated tumor destruction. As noted above, this is the dose we estimated would remain yet to be delivered 28 days after an initial ^131I-NM404 dose of 60 μCi. We thus evaluated groups of mice bearing a single 200 mm^3 B78 tumor. On day 0, all mice got 12 Gy xRT to their tumor, and on days 6-10, all got 50 mcg/d of IT-IC. One group also got 3 μCi of ^131I-NM404 on d-0 (˜0.2 Gy). […] We thus hypothesize that if we use an initial dose of 60 μCi of ^131I-NM404 TRT on day-22, it would effectively block the tolerogenic effect of distant tumors, yet enable xRT on day 0 and IT-IC on days 6-10 (28 d after the TRT) to the first tumor to function as an in situ vaccine, inducing an adaptive response that then eradicates all tumors.
Using the data summarized in Examples 7 and 8, a study was done in mice bearing 2 separate B78 tumors. Mice received the estimated required systemic ^131I-NM404 dose followed by xRT and local immunotherapy to the in situ vaccine site. […]

[4] = system: radiosensitive lymphoma tumor; test: ^131I-NM404 in mice bearing a radiosensitive lymphoma tumor; type: in vivo; details: ~2 Gy equivalent dose
Source text: (§2) In order to then determine if a ˜2 Gy equivalent dose of ^131I-NM404 would have the desired effects against intratumor lymphoid cells (particularly Tregs), 2 separate approaches have been pursued.

[5] = system: B78 tumor tissue; test: RT-PCR gene expression of immune signatures in tumor tissue after TRT; type: in vivo, mice; details: TRT alone; pretreatment and 8 d intervals
Description: Finally, to characterizing the immunological effects of TRT on the immune cells within tumors, we have treated B78 bearing mice with ^131I-NM404 and collected tumor tissue at pretreatment and at half-life (8 d) intervals thereafter. These tissues were then analyzed by RT-PCR for gene expression of a panel of immune signatures.

[6] = system: two B78 tumors; test: ^131I-NM404 + xRT + IT-IC in mice bearing two B78 tumors; type: in vivo, C57BL/6 mice; details: 60 μCi day 1, 12 Gy xRT to primary day 8, IT-IC days 13-17
Source text: Using the data summarized in Examples 7 and 8, a study was done in mice bearing 2 separate B78 tumors. Mice received the estimated required systemic ^131I-NM404 dose followed by xRT and local immunotherapy to the in situ vaccine site. […] Further testing, and modification of some of the experimental variables, is underway in order to try to maximize the desired effect of blocking CIT without suppressing the in situ vaccine effect. More details regarding these experiments are disclosed in Example 10 below.
Given the capacity of low dose ^131I-NM404 TRT to deplete tumor-infiltrating Tregs without rendering a mouse leukopenic, we tested whether low dose ^131I-NM404 might effectively overcome concomitant immune tolerance. C57BL/6 mice bearing two B78 tumors were treated with 60-μCi ^131I-NM404 on day 1 (NM404), as indicated. After one half-life (day 8), animals received 12 Gy xRT or no xRT to the primary tumor (in situ vaccine site). Control mice receiving no ^131I-NM404 were treated to the secondary tumor as indicated (0, 2, or 12 Gy). Mice received daily IT injections of IC to the primary tumor (in situ vaccine site), as indicated, on days 13-17.

[7] = system: tumor lines (human and mouse); test: selective uptake in vitro in tumor lines; type: cell-based; details: poor uptake by non-malignant cells
Source text: (§3) ^131I-NM404 has shown selective uptake in vitro in >95% of tumor lines (human and mouse), with poor uptake by non-malignant cells, and with similar tumor specificity seen in vivo. This includes selective uptake in vivo with the B78 tumor (FIG. 5). In our preliminary dosimetry study, we gave ^124I-NM404 to C57BL/6 mice and characterized the time course of TRT exposure by serial PET/CT imaging (as in FIG. 5). […] After those four weeks, the remaining TRT dose to the B78 tumor would be less than 0.25 Gy. We will replicate the data we obtained in our 2-tumor model using xRT (FIG. 3), but use the lowest possible dose of targeted ^131I-NM404 TRT to enable effective elimination of tumor-induced tolerance at all sites of distant disease. However, unlike xRT, which delivers all dose in minutes and is then done, TRT deposits dose over time, depending upon both the biological and physical half-life of the targeted isotope (8 day t½ for ^131I). We want an initial TRT effect at the distant tumor sites to eradicate immune tolerance; however we want the immunosuppressive TRT effect to then be minimal when we give the IT-IC to induce ADCC and the in situ vaccine anti-tumor effects. This is essential to allow full tumor destruction at all sites.

[8] = system: B78 tumors; test: low dose ^131I-NM404 TRT: blood counts and tumor infiltrating T cells; type: in vivo, C57BL/6 mice
Source text: as §2
A second approach involved treating mice with B78 tumors with these same doses of ^131I-NM404. […] This observation again supports our hypothesis that it will be feasible to use TRT to overcome Treg-mediated CIT in order to rescue an in situ vaccine effect in animals bearing multiple tumors.
In most clinical scenarios, it is not feasible to deliver external beam, even low dose, to all tumor sites without eliciting marked bone marrow depletion and leukopenia that would result in immunosuppression. Here we tested whether TRT could be administered systemically to specifically deplete tumor infiltrating suppressive immune cells (Tregs), without triggering systemic immune cell depletion and leukopenia. Dosimetry studies in this B78 melanoma tumor model were performed using positron-emitting ^124I-NM404 confirm tumor-selective uptake of NM404 (FIG. 12A). C57BL/6 mice bearing B78 tumors were treated with 60 μCi ^131I-NM404. This activity approximates the amount of ^131I-NM404 necessary to deliver ˜2 Gy TRT to a B78 tumor. Peripheral blood and tumor samples were collected in untreated control mice (C) and at 8 day intervals (T1=d8, T2=d16, T3=d24, T4=d32) thereafter.

[9] = system: B78 tumor; test: Monte Carlo dosimetry from serial ^124I-NM404 PET/CT; type: in vivo, C57BL/6 mice
Source text: as §3, §1
Based on the preliminary data described above in Examples 1-4, studies have been done to move these concepts into in vivo testing using TRT. […] This was done in order to estimate the amount of ^131I-NM404 that would be needed to approximate ˜2 Gy of xRT.
In most clinical scenarios, it is not feasible to deliver external beam, even low dose, to all tumor sites without eliciting marked bone marrow depletion and leukopenia that would result in immunosuppression. […]

[10] = system: Tregs; test: Treg depletion by diphtheria toxin in DEREG mice with primary and secondary B78 tumors treated with xRT+IT-IC; type: in vivo; details: IP diphtheria toxin vs PBS, with xRT+IT-IC to primary tumor
[11] = 3 and 4 half-life time points, vs untreated baseline and 2nd half-life

## C[N+](C)(C)CCOP(=O)([O-])OCCCCCCCCCCCCCCCCCCc1ccc(I)cc1 [NM404, 18-(p-iodophenyl)octadecyl phosphocholine]
[1]
  tumor uptake / targeting across in vivo models: near universal tumor uptake in all but three of over 70 in vivo models

## C[N+](C)(C)CCOP(=O)([O-])OCCCCCCCCCCCCCCCCCCc1ccc([124I])cc1 [^124I-NM404]
[2]
  tumor uptake on PET/CT: Excellent tumor uptake; also recorded: selective uptake by the tumor with some residual background uptake by the heart and liver

## C[N+](C)(C)CCOP(=O)([O-])OCCCCCCCCCCCCCCCCCCc1ccc([131I])cc1 [^131I-NM404]
[3]; 3 μCi on d-0 (~0.2 Gy), 12 Gy xRT day 0, IT-IC days 6-10
  tumor eradication by xRT+IT-IC with vs without TRT: same degree of tumor eradication; also recorded: equally effective
[3]; estimated required systemic TRT dose, mice with one tumor
  local in situ vaccine effect: did not appear to interfere with the local in situ vaccine effect
[4]
  lymphoid tumor response: potent lymphoid tumor shrinkage/dose-dependent inhibition
[5]
  gene expression of immune signatures: striking changes in expression of tumor cell markers of immunsusceptibility and in genes normally expressed only by immune cells
[6]
  concomitant immune tolerance (CIT) / primary and secondary tumor response: did appear to attenuate CIT; also recorded: effectively overcomes concomitant immune tolerance and rescues the systemic anti-tumor effect of in situ vaccination
[1]
  tumor uptake / targeting across in vivo models: nearly universal tumor targeting properties in over 60 in vivo cancer and cancer stem cell models
[7]
  tumor lines with selective uptake in vitro: > 95%
[8]; 2 half-life time point
  intratumor effector CD8+ T cells: decrease in intratumor effector CD8+ T cells
[8]; 2 half-lifes after TRT
  intratumor FoxP3+ Tregs: decrease in intratumor FoxP3+ Tregs
[8]; [11]
  intratumor CD8+ effector T cells: increase in intratumor CD8+ effector T cells
  intratumor Tregs: further decline in the levels of intratumor Tregs
[8]; 60 μCi, d8-d32
  level of tumor infiltrating CD8+ effector T cells: did not significantly affect the level of tumor infiltrating CD8+ effector T cells
  tumor infiltrating FoxP3+ Tregs: significantly depleted
[8]; 60 μCi, peripheral blood d8-d32
  systemic leukopenia: did not result in any significant systemic leukopenia
[8]; ~2 Gy equivalent dose
  circulating lymphoid cells (peripheral complete blood counts): did not cause either substantial shrinkage/slowing of the B78 tumor or any evident depletion of circulating lymphoid cells
[8]; ~2 Gy equivalent dose, TRT alone
  B78 tumor growth: did not cause either substantial shrinkage/slowing of the B78 tumor
[8]; ~2 Gy equivalent dose, half-life (8 d) intervals
  systemic lymphopenia (peripheral complete blood count): no systemic lymphopenia at any time point
[9]; 3 μCi
  dose delivered to the tumor site: ~0.2 Gy
[9]; after four weeks, initial 60 μCi
  remaining TRT dose to the B78 tumor: less than 0.25 Gy
[9]; mouse, in vivo
  activity necessary to deliver ~2 Gy TRT to a B78 tumor: ~60 μCi
[9]; over a four week period of decay
  activity needed to deliver ~3 Gy to an established B78 tumor: ~60 μCi

## diphtheria toxin
[10]
  primary and secondary tumor response: improved primary (FIG. 9B) and secondary (FIG. 9C) tumor response

— patent publication US11633506B2, “Using targeted radiotherapy (TRT) to drive anti-tumor immune response to immunotherapies” (Wisconsin Alumni Research Foundation, priority 2016, dated 2023)
